Test system: corneal disorder models
Assay: Test for therapeutic effect on corneal disorder (exorbital lacrimal gland removal model, fluorescein staining score)
Format: in vivo, male SD rats
Method: Using male SD rats, corneal disorder models were produced in accordance with the method of Fujihara et al. (Invest. Opthalmol. Vis. Sci. 42 (1): 96-100 (2001)). After the production of the corneal disorder models, the corneal disorder score was evaluated in accordance with the method of Murakami et al. (Journal of the eye 21 (1): 87-90 (2004)), and the improvement ratio of corneal disorder after instillation of eprosartan mesylate (hereinafter referred to as “Compound A”) was obtained.
As test animals, male SD rats were used, and systemic anesthesia was given to the rats by administration of Nembutal. Subsequently the exorbital lacrimal gland was removed and a corneal disorder was induced over a period of 2 months.
Then, Compound A was administered as follows.
A phosphate-buffered saline solution (PBS solution) containing Compound A (0.1%) was instilled into both eyes 6 times a day for 14 days (instilled amount: 5 μL/dose) (one group consisting of 4 animals, 8 eyes).
In a control group, PBS solution was instilled into both eyes 6 times a day for 14 days (instilled amount: 5 μL/dose) (one group consisting of 4 animals, 8 eyes).
Fourteen days after the start of instillation, the damaged parts of the cornea were stained with fluorescein. For each of the upper, middle and lower parts of the cornea, the degree of fluorescein staining was evaluated by scoring according to the criteria shown below and the improvement ratio of corneal disorder was calculated from the mean value of the total scores for each of the above-mentioned parts.
Also for normal eyes, the mean value of the total scores for each of the above-mentioned parts was obtained. […]
By taking the mean value of the total scores for the control group (PBS solution) as a standard (improvement ratio: 0%) and according to the calculation formula shown below, the improvement ratio in the Compound A instillation group was calculated, which is shown in Table 1. […]

SMILES: CCCCc1ncc(/C=C(\Cc2cccs2)C(=O)O)n1Cc1ccc(C(=O)O)cc1 [Compound A, (E)-a-[[2-n-butyl-1-[(4-carboxyphenyl)methyl]-1H-imidazol-5-yl]methylene]-2-thiophenepropionic acid monomethanesulfonate]
- Improvement ratio (%) (0.1% in PBS instilled 6 times a day for 14 days, {(control)-(Compound A)}/((control)-(normal eye))x100, control = 0%): 84.8%
- Improvement of corneal damage (in words) (rats, Table 1, 0.1% instillation for 14 days): significantly improved a corneal damage
- Mean value of scores (total fluorescein staining score (upper, middle, lower cornea, each 0-3), 0.1% in PBS instilled into both eyes 6 times a day for 14 days, mean of 8 eyes, control 6.1, normal eye 2.8): 3.3

Reference: patent US20090270474A1, “Therapeutic Agent for Keratoconjunctival Disorder” (priority 2005, published 2009)
